Experiment [1] has as its target T1, FLT3-ITD (Homo sapiens, UniProt P36888).
T1 construct: fused on or other part: GST tag, inferred from detection with the anti-GST europium antibody
T1 sequence (P36888 1-993): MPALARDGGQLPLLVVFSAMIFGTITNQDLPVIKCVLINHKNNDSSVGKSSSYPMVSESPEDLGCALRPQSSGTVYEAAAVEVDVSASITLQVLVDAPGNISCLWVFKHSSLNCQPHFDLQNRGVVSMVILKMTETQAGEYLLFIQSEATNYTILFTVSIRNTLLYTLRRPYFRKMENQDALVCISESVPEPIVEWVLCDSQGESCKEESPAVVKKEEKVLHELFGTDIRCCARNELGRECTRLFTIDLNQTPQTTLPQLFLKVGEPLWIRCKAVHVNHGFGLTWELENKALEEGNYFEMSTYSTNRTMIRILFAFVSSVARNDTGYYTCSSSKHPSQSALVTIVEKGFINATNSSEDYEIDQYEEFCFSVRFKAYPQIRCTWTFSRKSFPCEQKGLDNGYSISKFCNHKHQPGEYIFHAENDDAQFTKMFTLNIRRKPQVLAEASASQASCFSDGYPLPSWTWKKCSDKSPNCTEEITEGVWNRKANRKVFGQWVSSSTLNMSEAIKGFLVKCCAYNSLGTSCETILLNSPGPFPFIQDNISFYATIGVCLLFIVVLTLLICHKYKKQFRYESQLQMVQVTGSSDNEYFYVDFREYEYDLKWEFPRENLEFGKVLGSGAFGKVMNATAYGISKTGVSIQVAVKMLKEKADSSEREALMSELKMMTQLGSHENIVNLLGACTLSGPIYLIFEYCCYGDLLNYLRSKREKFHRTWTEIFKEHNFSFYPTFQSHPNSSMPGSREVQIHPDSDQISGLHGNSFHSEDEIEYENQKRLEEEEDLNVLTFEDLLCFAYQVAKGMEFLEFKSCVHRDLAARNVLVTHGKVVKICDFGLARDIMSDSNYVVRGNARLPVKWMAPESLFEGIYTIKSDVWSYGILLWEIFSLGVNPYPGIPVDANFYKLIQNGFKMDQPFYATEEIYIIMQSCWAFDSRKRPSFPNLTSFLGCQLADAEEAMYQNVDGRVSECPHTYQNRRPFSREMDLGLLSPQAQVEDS
Briefly: LanthaScreen TR-FRET binding test, FLT3-ITD. As to conditions: 15 nM protein, kinase tracer 236 3 nM, 25° C., 1 hour. As for the experimental part: (§1) FLT3 (#PV3182), JAK2 (#FV4210) and JAK3 (#PV3855) recombinant enzymes were purchased from Life Technologies, FLT3-ITD (#0778-0000-1) and FLT3^D835Y (#14-610) proteins were purchased from ProQinase and Merck Millipore, respectively. All the tests were carried out in 384-well plates. The principle of these binding tests is based on the LanthaScreen® TR-FRET methodology from Life Technologies.
(§2) FLT3 tests. The reaction mixture (15 μL total volume) contains the following compounds: 15 nM FLT3, FLT3-ITD or FLT3^D835Y, 3 nM kinase tracer 236 (Life Technologies, #PV5592) and 6 nM LanthaScreen® anti-GST antibody coupled to a europium chelate (Life Technologies, #PV5594) for FLT3-ITD and FLT3^D835Y or 6 nM LanthaScreen® anti-His antibody coupled to a europium chelate (Life Technologies, #PV5596) for FLT3.
(§3) The compounds are evaluated at 8 different concentrations prepared by making dilutions from a starting 10 mM stock solution in dimethylsulfoxide (DMSO) (Sigma, #D8418). The final DMSO concentration in the test is 1%. The reaction is carried out at 25° C. for 1 hour and detected on the EnVision® reader (Perkin Elmer) according to the recommendations of the supplier, Life Technologies.
(§4) The results are presented (Table 1) as the concentration values of the compound at which 50% of the kinase activity is inhibited, IC50 (μM), generated using the PRISM software (GraphPad).
For orientation: TR-FRET usually uses a lanthanide donor and a delayed reading to cut background.

Experiment [2] concerns MOLM-13. Description: Antiproliferative activity, MOLM-13 cells (ATPLite). The conditions noted are these: Homo sapiens; MOLM-13 cell line (acute myeloid leukemia, FLT3-ITD), 72 h, cell viability by ATPLite; read-out: EC50 MOLM13. The experiment is classed as cell-based. Here is the method: (§5) The characteristics of the cell lines used are as follows (Table 2).
(§6) MV4-11 and MOLM-13 cell lines are cultured in the culture medium specified in Table 2 above and according to the supplier's recommendations. The tests are carried out in 96-well plates. The cells are divided in two at D0. At D1, they are seeded and treated with the compounds at various concentrations and incubated for 72 h at 37° C. and 5% CO2. The dilution of the compounds from stock solutions in DMSO (Sigma, #D8418) was made semi-logarithmically for a final concentration in the culture medium of 0.1%. At day 4, cell viability is evaluated by assaying the ATP released by the living cells using the ATPLite® kit (Perkin Elmer, #6016947). The EC50 values (concentration of the compound necessary to obtain 50% of the maximum effect) are calculated using curve-fitting software.
(In general: ATP-based viability assays read luminescence as a measure of living cells.)

The target in experiment [3] is T2, JAK2 (Homo sapiens, UniProt O60674).
T2 construct: purchased Life Technologies FV4210
T2 sequence (O60674 whole entry): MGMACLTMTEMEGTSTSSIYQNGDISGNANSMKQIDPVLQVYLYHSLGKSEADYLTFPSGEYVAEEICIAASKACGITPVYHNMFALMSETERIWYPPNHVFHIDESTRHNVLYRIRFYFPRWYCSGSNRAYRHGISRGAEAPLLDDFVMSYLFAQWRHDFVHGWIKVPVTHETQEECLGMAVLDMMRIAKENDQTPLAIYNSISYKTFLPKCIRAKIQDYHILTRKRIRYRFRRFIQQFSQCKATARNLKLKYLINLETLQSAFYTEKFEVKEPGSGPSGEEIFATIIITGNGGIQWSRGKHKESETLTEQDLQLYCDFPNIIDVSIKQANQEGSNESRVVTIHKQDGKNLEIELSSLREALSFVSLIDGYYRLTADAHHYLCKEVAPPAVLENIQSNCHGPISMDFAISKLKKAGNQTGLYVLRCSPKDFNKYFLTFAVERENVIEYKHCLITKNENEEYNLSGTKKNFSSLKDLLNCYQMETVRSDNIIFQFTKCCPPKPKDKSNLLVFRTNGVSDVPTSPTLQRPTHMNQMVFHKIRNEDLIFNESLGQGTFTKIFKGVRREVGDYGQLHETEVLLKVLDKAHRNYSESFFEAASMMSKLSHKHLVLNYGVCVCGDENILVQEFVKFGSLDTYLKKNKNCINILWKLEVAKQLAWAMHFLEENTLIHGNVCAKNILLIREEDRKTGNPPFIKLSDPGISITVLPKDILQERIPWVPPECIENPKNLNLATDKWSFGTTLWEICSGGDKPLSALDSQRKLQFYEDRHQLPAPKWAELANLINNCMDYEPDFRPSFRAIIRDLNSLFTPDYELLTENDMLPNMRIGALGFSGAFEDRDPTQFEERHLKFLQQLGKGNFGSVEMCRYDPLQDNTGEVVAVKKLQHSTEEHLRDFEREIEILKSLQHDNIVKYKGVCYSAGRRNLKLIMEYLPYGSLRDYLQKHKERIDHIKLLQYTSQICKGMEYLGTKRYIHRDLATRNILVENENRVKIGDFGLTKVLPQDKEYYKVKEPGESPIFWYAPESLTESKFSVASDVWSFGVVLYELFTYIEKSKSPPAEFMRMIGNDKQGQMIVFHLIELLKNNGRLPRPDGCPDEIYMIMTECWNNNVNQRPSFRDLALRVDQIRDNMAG
Description: LanthaScreen TR-FRET binding test, JAK2. The conditions noted are these: recombinant enzyme 15 nM, kinase tracer 236 150 nM, 25° C., 1 hour. As for the experimental part: as §1
(§7) JAK tests. The reaction mixture (15 μL total volume) contains the following compounds: 15 nM JAK2 or JAK3, 150 nM kinase tracer 236 (Life Technologies, #PV5592) for JAK2 or 3 nM for JAK3 and 6 nM LanthaScreen® anti-GST antibody coupled to a europium chelate (Life Technologies, #PV5594) for both enzymes.
as §3, §4

Experiment [4] relates to MV4-11. Briefly: Antiproliferative activity, MV4-11 cells (ATPLite). Type of experiment: cell-based. The conditions noted are these: Homo sapiens; MV4-11 cell line (acute myeloid leukemia, FLT3-ITD), 72 h, cell viability by ATPLite; read-out: EC50 MV411. As for the experimental part:
as §5, §6

Experiment [5] has as its target T3, JAK3 (Homo sapiens, UniProt P52333).
T3 construct: purchased Life Technologies PV3855
T3 sequence (P52333 1-1124): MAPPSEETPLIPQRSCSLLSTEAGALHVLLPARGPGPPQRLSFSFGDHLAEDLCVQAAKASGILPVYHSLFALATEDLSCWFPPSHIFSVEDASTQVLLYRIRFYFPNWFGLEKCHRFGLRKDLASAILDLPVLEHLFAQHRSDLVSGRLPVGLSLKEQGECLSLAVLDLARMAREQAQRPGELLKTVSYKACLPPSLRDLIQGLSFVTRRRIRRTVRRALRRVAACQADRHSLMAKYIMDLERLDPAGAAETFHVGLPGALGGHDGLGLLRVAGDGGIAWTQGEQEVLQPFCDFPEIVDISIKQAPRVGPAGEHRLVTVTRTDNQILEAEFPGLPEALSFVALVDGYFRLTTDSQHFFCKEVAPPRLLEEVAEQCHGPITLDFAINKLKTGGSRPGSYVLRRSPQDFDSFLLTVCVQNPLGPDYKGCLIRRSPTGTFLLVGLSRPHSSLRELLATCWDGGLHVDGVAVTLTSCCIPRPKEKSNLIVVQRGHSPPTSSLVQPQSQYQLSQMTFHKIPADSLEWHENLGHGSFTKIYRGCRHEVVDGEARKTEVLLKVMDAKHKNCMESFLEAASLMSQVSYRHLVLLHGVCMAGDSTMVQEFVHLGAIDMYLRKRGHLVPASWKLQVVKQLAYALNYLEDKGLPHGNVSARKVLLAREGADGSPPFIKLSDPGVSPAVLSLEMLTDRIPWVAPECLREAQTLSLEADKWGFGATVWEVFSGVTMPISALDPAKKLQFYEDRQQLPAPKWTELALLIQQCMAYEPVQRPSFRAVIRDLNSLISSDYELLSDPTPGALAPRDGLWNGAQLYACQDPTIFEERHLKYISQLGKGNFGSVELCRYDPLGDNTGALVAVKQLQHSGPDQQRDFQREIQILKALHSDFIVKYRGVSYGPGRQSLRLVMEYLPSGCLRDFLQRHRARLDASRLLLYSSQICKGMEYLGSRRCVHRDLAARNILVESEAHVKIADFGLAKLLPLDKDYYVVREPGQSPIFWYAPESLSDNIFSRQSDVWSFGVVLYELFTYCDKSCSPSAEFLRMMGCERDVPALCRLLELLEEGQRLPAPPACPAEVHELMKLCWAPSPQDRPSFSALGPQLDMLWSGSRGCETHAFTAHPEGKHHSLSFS
Briefly: LanthaScreen TR-FRET binding test, JAK3. The conditions noted are these: recombinant enzyme 15 nM, kinase tracer 236 3 nM, 25° C., 1 hour. Here is the method:
as §1, §7, §3, §4

Experiment [6] deals with T4, FLT3 (Homo sapiens, UniProt P36888).
T4 construct: purchased Life Technologies PV3182
T4 sequence (P36888 27-993): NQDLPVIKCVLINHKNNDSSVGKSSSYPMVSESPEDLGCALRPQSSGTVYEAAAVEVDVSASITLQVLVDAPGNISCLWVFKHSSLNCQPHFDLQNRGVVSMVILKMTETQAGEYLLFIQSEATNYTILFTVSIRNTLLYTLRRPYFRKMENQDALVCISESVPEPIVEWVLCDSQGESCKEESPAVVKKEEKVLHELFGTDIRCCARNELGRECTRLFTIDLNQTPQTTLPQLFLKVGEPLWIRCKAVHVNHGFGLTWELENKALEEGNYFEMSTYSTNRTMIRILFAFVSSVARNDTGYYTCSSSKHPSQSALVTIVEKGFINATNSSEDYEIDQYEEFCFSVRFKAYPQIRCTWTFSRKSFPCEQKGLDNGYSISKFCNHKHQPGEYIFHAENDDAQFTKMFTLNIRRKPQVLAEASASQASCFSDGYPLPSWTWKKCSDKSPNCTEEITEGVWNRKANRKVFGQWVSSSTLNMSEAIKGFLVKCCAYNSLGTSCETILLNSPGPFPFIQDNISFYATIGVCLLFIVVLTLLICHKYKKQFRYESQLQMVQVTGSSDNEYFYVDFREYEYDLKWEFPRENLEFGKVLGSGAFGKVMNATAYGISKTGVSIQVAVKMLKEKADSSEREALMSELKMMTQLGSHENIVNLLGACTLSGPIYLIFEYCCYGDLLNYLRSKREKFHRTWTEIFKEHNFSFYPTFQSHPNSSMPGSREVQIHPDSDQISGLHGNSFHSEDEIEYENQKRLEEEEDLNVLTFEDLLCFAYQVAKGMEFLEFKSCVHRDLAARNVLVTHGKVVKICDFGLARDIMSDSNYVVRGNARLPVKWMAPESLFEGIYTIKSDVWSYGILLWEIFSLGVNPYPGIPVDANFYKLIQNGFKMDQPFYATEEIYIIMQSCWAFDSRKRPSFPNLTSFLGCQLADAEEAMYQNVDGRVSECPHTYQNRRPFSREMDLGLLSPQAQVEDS
Briefly: LanthaScreen TR-FRET binding test, FLT3. As to conditions: recombinant enzyme 15 nM, kinase tracer 236 3 nM, 25° C., 1 hour. Here is the method:
as §1, §2, §3, §4

For experiment [7], the target named is T5, FLT3^D835Y (Homo sapiens, UniProt P36888, D835Y).
T5 construct: purchased Merck Millipore 14-610
T5 sequence (P36888 27-993 D835Y): T4 sequence (P36888 27-993) with D809Y
Description: LanthaScreen TR-FRET binding test, FLT3 D835Y. As to conditions: 15 nM protein, kinase tracer 236 3 nM, 25° C., 1 hour. As for the experimental part: as §1, §2, §3, §4

Substitutions are numbered along the chain they refer to. pEC50, pIC50: −log10 of the molar value.

For orientation: pIC50 means the IC50 on a negative log10 scale, so that one unit is a factor of ten. The pEC50 is the EC50 on a negative log10 scale, so that one unit is a factor of ten.

On to `CN1CCN(c2ccc3cc2OCCOCCOc2cccc(c2)-c2ccnc(n2)N3)CC1` [Compound 4], for which the pIC50 in experiment [1] is 7.84; in experiment [3] it was 8.11; in experiment [5] it was 7.30; in experiment [6] it was 7.59; in experiment [7], 7.46. Moreover, the pEC50 is 7.72 in experiment [2] and 7.24 in experiment [4].
Regarding `CN1CCC(N2CCN(c3ccc4cc3OCCOCCOc3cccc(c3)-c3ccnc(n3)N4)CC2)CC1` [Compound 6], the pIC50 is 6.92 in experiment [1]; 8.28 in experiment [3]; 7.30 in experiment [5]; 6.96 in experiment [6]; 7.39 in experiment [7]. Besides, the pEC50 in experiment [2] is 6.84; in experiment [4], 6.61.
Take `CN1CCN(c2cc3cc(c2)OCCOCCOc2cccc(c2)-c2ccnc(n2)N3)CC1` [Compound 46]: the negative-log IC50 (pIC50) in experiment [1] was 8.80; in experiment [3], 7.22; in experiment [5], 7.00; in experiment [6], 8.33; in experiment [7], 8.21. In addition, the pEC50 in experiment [2] was 8.41; in experiment [4] it was 8.74.
